Data on 21 molecules can be found in patent US9296734B2 (AMGEN INC., priority 2013, dated 2016).

Like-named read-outs stand apart in the source and are kept apart here.

Experiment [1] concerns the target Beta Secretase enzyme (BACE) (Homo sapiens (Human), UniProt P56817). In words: In vitro enzymatic BACE FRET assay. Conditions: read-out: BACE 1 FRET assay IC50. In kind it is biochemical. The method in brief:
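A quenched fluorophore-peptide spanning the BACE cleavage site served as substrate at 50 nM, with one-hour incubation in pH 4.2 acetate buffer containing 100 uM genapol and 10% DMSO final. Fluorescence was measured after quenching with Tris to neutral pH.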

The test system of experiment [2] is Aβ40 in conditioned medium of cells stably expressing Amyloid Precursor Protein (APP). As to the kind of experiment: In vitro BACE cell-based assay (Aβ40 sandwich ELISA). To be noted: Homo sapiens. The method in brief:
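Aβ40 in supernatants was measured by time-resolved fluorescence sandwich ELISA using pAb40 capture and biotinylated 6E10 detection, with antibody incubations at 4 °C. Stable APP cells were exposed to compounds for 24 h in a 10-point series (top dose 100 or 10 µM, 0.1% DMSO). IC50 was fitted from the concentration-response.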

Experiment [3] addresses Cathepsin D (Cat D) (Homo sapiens (Human), UniProt P07339). In words: In vitro enzymatic Cathepsin D (Cat D) FRET assay. The experiment is classed as biochemical. To be noted: read-out: CatD IC50. The method in brief: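 CHO-expressed recombinant Cat D cleaves a fluorophore/quencher FRET peptide (20 nM) in 0.05 M citrate pH 3.5, 5 mM CHAPS, 10% DMSO final, over 1 h. Tris addition neutralizes pH to stop the reaction; fluorescence read at excitation 500 nm, emission 580 nm.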

The mark [4] stands for this setting: average IC50, BACE enzyme assay.
Where [5] appears, read: HEK293, read-out: HEK cell assay IC50.
Setting [6] is: average IC50, cathepsin D enzyme assay.
[7] abbreviates: HEK293, average IC50, HEK cells, read-out: HEK cell assay IC50.
Setting [8] is: HEK293, average IC50, HEK cell assay, read-out: HEK cell assay IC50.
Setting [9] is: HEK293, HEK cells, average, read-out: HEK cell assay IC50.

Sequence of Beta Secretase enzyme (BACE) (P56817 46-501): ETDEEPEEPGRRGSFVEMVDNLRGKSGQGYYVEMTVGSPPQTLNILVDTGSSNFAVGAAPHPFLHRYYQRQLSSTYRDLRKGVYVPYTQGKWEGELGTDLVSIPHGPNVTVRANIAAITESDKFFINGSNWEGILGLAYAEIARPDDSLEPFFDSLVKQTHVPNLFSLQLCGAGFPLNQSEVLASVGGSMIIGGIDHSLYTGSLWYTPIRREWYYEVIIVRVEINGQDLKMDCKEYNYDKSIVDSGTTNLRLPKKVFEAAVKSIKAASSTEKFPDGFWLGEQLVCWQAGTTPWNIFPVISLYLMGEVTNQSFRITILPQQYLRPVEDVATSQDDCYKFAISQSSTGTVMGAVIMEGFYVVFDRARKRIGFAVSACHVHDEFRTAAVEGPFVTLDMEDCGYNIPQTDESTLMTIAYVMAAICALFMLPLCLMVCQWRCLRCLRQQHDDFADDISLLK
Sequence of Cathepsin D (Cat D) (P07339 65-412, species assumed): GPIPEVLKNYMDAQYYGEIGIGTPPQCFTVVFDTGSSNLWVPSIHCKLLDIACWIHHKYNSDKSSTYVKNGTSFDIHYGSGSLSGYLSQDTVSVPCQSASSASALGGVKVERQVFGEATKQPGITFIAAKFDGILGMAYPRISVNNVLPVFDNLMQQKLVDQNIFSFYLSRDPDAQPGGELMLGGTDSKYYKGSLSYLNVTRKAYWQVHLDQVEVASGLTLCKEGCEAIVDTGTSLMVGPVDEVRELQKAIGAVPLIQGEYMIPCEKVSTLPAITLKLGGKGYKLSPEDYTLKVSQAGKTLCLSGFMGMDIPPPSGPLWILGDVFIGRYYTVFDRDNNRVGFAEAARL

As for `NC1=N[C@](CF)(c2cc(-c3nc4ccc(Cl)cc4o3)ccc2F)C[C@@H](C(F)(F)F)O1` [Example 105, (4S,6S)-4-(5-(6-chlorobenzo[d]oxazol-2-yl)-2-fluorophenyl)-4-(fluoromethyl)-6-(trifluoromethyl)-5,6-dihydro-4H-1,3-oxazin-2-amine], the IC50 in experiment [1] (setting [4]) was 0.542 µM; in experiment [2] (setting [5]), 2.81 µM; in experiment [3] (setting [6]) it was greater than 44.4 µM.
`N#Cc1cccnc1Oc1ccc(F)c([C@]2(CF)C[C@@H](C(F)(F)F)OC(N)=N2)c1` [Example 107, 2-(3-((4S,6S)-2-amino-4-(fluoromethyl)-6-(trifluoromethyl)-5,6-dihydro-4H-1,3-oxazin-4-yl)-4-fluorophenoxy)nicotinonitrile]: the IC50 stood at 5.87 µM in experiment [1] (average IC50), 3.61 µM in experiment [2] (setting [5]) and 1400 µM in experiment [3] (average IC50).
As to `NC1=N[C@](CF)(c2cc(Oc3ncccn3)ccc2F)C[C@@H](C(F)(F)F)O1` [Example 108, (4S,6S)-4-(2-fluoro-5-(pyrimidin-2-yloxy)phenyl)-4-(fluoromethyl)-6-(trifluoromethyl)-5,6-dihydro-4H-1,3-oxazin-2-amine], the IC50 in experiment [1] (average IC50) was 9.97 µM; in experiment [2] (setting [7]) it was greater than 15.6 µM; in experiment [3] (average IC50), greater than 400 µM.
As for `NC1=N[C@](CF)(c2cc(Oc3nccc(C(F)(F)F)c3F)ccc2F)C[C@@H](C(F)(F)F)O1` [Example 109, (4S,6S)-4-(2-fluoro-5-((3-fluoro-4-(trifluoromethyl)pyridin-2-yl)oxy)phenyl)-4-(fluoromethyl)-6-(trifluoromethyl)-5,6-dihydro-4H-1,3-oxazin-2-amine], the concentration for half-maximal inhibition (IC50) in experiment [1] (average IC50) is 9.52 µM; in experiment [2] (setting [5]), 8.18 µM; in experiment [3] (average IC50), greater than 400 µM.
`NC1=N[C@](CF)(c2cc(Oc3cccc(C(F)(F)F)n3)ccc2F)C[C@@H](C(F)(F)F)O1` [Example 110, (4S,6S)-4-(2-fluoro-5-((6-(trifluoromethyl)pyridin-2-yl)oxy)phenyl)-4-(fluoromethyl)-6-(trifluoromethyl)-5,6-dihydro-4H-1,3-oxazin-2-amine]: the 50% inhibitory concentration (IC50) in experiment [1] (average IC50) was found to be 3.41 µM; in experiment [2] (setting [7]), 4.56 µM; in experiment [3] (average IC50), 1820 µM.
With `C[Si](C)(C)C#Cc1ccc(-c2ccc(F)c([C@]3(CF)C[C@@H](C(F)(F)F)OC(N)=N3)c2)cn1` [Example 111, (4S,6S)-4-(2-fluoro-5-(6-((trimethylsilyl)ethynyl)pyridin-3-yl)phenyl)-4-(fluoromethyl)-6-(trifluoromethyl)-5,6-dihydro-4H-1,3-oxazin-2-amine], the values for the half-inhibitory concentration (IC50) in experiment [1] (setting [4]), in experiment [2] (setting [5]) and in experiment [3] (setting [6]) were 37.2 µM, greater than 15.6 µM and greater than 400 µM, respectively.
Consider `C#Cc1ccc(-c2ccc(F)c([C@]3(CF)C[C@@H](C(F)(F)F)OC(N)=N3)c2)cn1` [Example 112, (4S,6S)-4-(5-(6-ethynylpyridin-3-yl)-2-fluorophenyl)-4-(fluoromethyl)-6-(trifluoromethyl)-5,6-dihydro-4H-1,3-oxazin-2-amine], for which the half-inhibitory concentration (IC50) in experiment [1] (setting [4]) is greater than 40 µM; in experiment [2] (setting [8]), greater than 15.6 µM; in experiment [3] (setting [6]), greater than 400 µM.
The corresponding values for `CC#Cc1ccc(-c2ccc(F)c([C@]3(CF)C[C@@H](C(F)(F)F)OC(N)=N3)c2)cn1` [Example 113, (4S,6S)-4-(2-fluoro-5-(6-(prop-1-yn-1-yl)pyridin-3-yl)phenyl)-4-(fluoromethyl)-6-(trifluoromethyl)-5,6-dihydro-4H-1,3-oxazin-2-amine] are 27.4 µM, greater than 15.6 µM and 170 µM.
As for `NC1=N[C@](CF)(c2cc(-c3ncc4cc(F)ccc4n3)ccc2F)C[C@@H](C(F)(F)F)O1` [Example 114, (4S,6S)-4-(2-fluoro-5-(6-fluoroquinazolin-2-yl)phenyl)-4-(fluoromethyl)-6-(trifluoromethyl)-5,6-dihydro-4H-1,3-oxazin-2-amine], the half-inhibitory concentration (IC50) in experiment [1] (setting [4]) is greater than 40 µM; in experiment [2] (setting [8]), greater than 15.6 µM; in experiment [3] (setting [6]), 758 µM.
With `NC1=N[C@](CF)(c2cc(Nc3cc(-c4ccccc4)ccn3)ccc2F)C[C@@H](C(F)(F)F)O1` [Example 115, (4S,6S)-4-(2-fluoro-5-((4-phenylpyridin-2-yl)amino)phenyl)-4-(fluoromethyl)-6-(trifluoromethyl)-5,6-dihydro-4H-1,3-oxazin-2-amine], the figures for the concentration for half-maximal inhibition (IC50) in experiment [1] (setting [4]), in experiment [2] (setting [8]) and in experiment [3] (setting [6]) were 7.88 µM, 3.16 µM and 316 µM, respectively.
The corresponding values for `NC1=N[C@](CF)(c2cc(-c3ccc4cc(F)ccc4n3)ccc2F)C[C@@H](C(F)(F)F)O1` [Example 116, (4S,6S)-4-(2-fluoro-5-(6-fluoroquinolin-2-yl)phenyl)-4-(fluoromethyl)-6-(trifluoromethyl)-5,6-dihydro-4H-1,3-oxazin-2-amine] are greater than 40 µM, greater than 15.6 µM and greater than 133 µM.
Consider `NC1=N[C@](CF)(c2cc(-c3ccc4ccc(F)cc4n3)ccc2F)C[C@@H](C(F)(F)F)O1` [Example 117, (4S,6S)-4-(2-fluoro-5-(7-fluoroquinolin-2-yl)phenyl)-4-(fluoromethyl)-6-(trifluoromethyl)-5,6-dihydro-4H-1,3-oxazin-2-amine], for which the values for the IC50 in experiment [1] (setting [4]), in experiment [2] (setting [8]) and in experiment [3] (setting [6]) were greater than 40 µM, greater than 15.6 µM and greater than 133 µM, respectively.
Take `NC1=N[C@](CF)(c2cc(-c3cncc(-c4nnco4)c3)ccc2F)C[C@@H](C(F)(F)F)O1` [Example 118, (4S,6S)-4-(5-(5-(1,3,4-oxadiazol-2-yl)pyridin-3-yl)-2-fluorophenyl)-4-(fluoromethyl)-6-(trifluoromethyl)-5,6-dihydro-4H-1,3-oxazin-2-amine]: the IC50 was 8.36 µM in experiment [1] (setting [4]), greater than 15.6 µM in experiment [2] (setting [8]) and 454 µM in experiment [3] (setting [6]).
On to `COC1CCN(C(=O)Nc2ccc(F)c([C@]3(C)C[C@@H](C(F)(F)F)OC(N)=N3)c2)CC1` [Example 119, N-(3-((4S,6S)-2-amino-4-methyl-6-(trifluoromethyl)-5,6-dihydro-4H-1,3-oxazin-4-yl)-4-fluorophenyl)-4-methoxypiperidine-1-carboxamide], for which the concentration for half-maximal inhibition (IC50) is 55.8 µM in experiment [1] (setting [4]), 2.08 µM in experiment [2] (setting [8]) and greater than 400 µM in experiment [3] (setting [6]).
`C[C@@]1(c2cc(NC(=O)N3CC=CCC3)ccc2F)C[C@@H](C(F)(F)F)OC(N)=N1` [Example 123, N-(3-((4S,6S)-2-amino-4-methyl-6-(trifluoromethyl)-5,6-dihydro-4H-1,3-oxazin-4-yl)-4-fluorophenyl)-5,6-dihydropyridine-1(2H)-carboxamide]: the results for the half-maximal inhibitory concentration (IC50) in experiment [1] (setting [4]), in experiment [2] (setting [8]) and in experiment [3] (setting [6]) were 11.5 µM, 0.908 µM and greater than 400 µM, respectively.
As for `N#Cc1ccc(C#Cc2ccc(F)c([C@]3(CF)C[C@@H](C(F)(F)F)OC(N)=N3)c2)nc1` [Example 125, 6-((3-((4S,6S)-2-amino-4-(fluoromethyl)-6-(trifluoromethyl)-5,6-dihydro-4H-1,3-oxazin-4-yl)-4-fluorophenyl)ethynyl)nicotinonitrile], the IC50 is 0.509 µM in experiment [1] (average), 0.509 µM in experiment [2] (setting [9]) and greater than 400 µM in experiment [3] (average).
With `CNC(=O)c1ccc(C#Cc2ccc(F)c([C@]3(CF)C[C@@H](C(F)(F)F)OC(N)=N3)c2)nc1` [Example 126, 6-((3-((4S,6S)-2-amino-4-(fluoromethyl)-6-(trifluoromethyl)-5,6-dihydro-4H-1,3-oxazin-4-yl)-4-fluorophenyl)ethynyl)-N-methylnicotinamide], the IC50 in experiment [1] (average) was 26.6 µM; in experiment [2] (setting [9]), 7.46 µM; in experiment [3] (average), greater than 400 µM.
The corresponding values for `NC1=N[C@](CF)(c2cc(C#Cc3ccc(OC4CCC4)cn3)ccc2F)C[C@@H](C(F)(F)F)O1` [Example 128, (4S,6S)-4-(5-((5-cyclobutoxypyridin-2-yl)ethynyl)-2-fluorophenyl)-4-(fluoromethyl)-6-(trifluoromethyl)-5,6-dihydro-4H-1,3-oxazin-2-amine] are 20.5 µM, 5.98 µM and 1060 µM.
`CNC(=O)c1ccnc(C#Cc2ccc(F)c([C@]3(CF)C[C@@H](C(F)(F)F)OC(N)=N3)c2)c1` [Example 129, 2-((3-((4S,6S)-2-amino-4-(fluoromethyl)-6-(trifluoromethyl)-5,6-dihydro-4H-1,3-oxazin-4-yl)-4-fluorophenyl)ethynyl)-N-methylisonicotinamide]: the IC50 is greater than 40 µM in experiment [1] (average), greater than 15.6 µM in experiment [2] (setting [9]) and greater than 400 µM in experiment [3] (average).
The corresponding values for `NC1=N[C@](CF)(c2cc(C#Cc3cccc4[nH]ccc34)ccc2F)C[C@@H](C(F)(F)F)O1` [Example 130, (4S,6S)-4-(5-((1H-indol-4-yl)ethynyl)-2-fluorophenyl)-4-(fluoromethyl)-6-(trifluoromethyl)-5,6-dihydro-4H-1,3-oxazin-2-amine] are 5.62 µM, 2.08 µM and 578 µM.
The corresponding values for `NC1=N[C@](CF)(c2cc(C#Cc3ccc4[nH]ccc4c3)ccc2F)C[C@@H](C(F)(F)F)O1` [Example 131, (4S,6S)-4-(5-((1H-indol-5-yl)ethynyl)-2-fluorophenyl)-4-(fluoromethyl)-6-(trifluoromethyl)-5,6-dihydro-4H-1,3-oxazin-2-amine] are 0.577 µM, 1.81 µM and 381 µM.
